Experimental data published in patent US11987648B2, “Cyclohexapeptides as selective somatostatin SST5 receptor agonists” (Heptares Therapeutics Limited, priority 2018, dated 2024).
pEC50: −log10 of the molar value. *1 amine or outer side, *2 acyl side, *3 side chain or, on linkers, in order; H or OH if unused. Where a SMILES comes first, the peptide text is derived from it. Side-chain parts run from the residue outwards. [ ]: non-standard residue; d: D form. The star is where a group is joined. Ethylenediamine = C(CN[*:2])N[*:1]; Hyp = O=C(O)[C@@H]1C[C@@H](O)CN1; Phg = N[C@H](C(=O)O)c1ccccc1; CO = O=C([*:1])[*:2]; Bn = c1ccc(C*)cc1

Legend:
[1] = Phase II trial, hepatocellular carcinoma; cited from earlier work
[2] = target: SST2 (Homo sapiens, UniProt P30874); test: Hit Hunter cAMP XS+ assay, SST2 activation via Gi (reduction of forskolin-stimulated cAMP); type: cell-based
Sequence of SST2 (P30874 whole entry, the tested form may be a part): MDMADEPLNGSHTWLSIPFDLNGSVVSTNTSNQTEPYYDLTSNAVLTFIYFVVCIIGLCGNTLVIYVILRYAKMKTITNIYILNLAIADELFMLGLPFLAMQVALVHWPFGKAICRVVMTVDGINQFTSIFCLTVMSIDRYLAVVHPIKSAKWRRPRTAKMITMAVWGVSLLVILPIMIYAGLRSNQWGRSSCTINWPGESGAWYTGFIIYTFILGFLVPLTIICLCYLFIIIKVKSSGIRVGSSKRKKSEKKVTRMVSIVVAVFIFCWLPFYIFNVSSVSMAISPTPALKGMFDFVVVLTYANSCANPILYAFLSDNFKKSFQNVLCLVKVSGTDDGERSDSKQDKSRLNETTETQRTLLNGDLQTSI
Procedure, shortened: (§1)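 Cells (10,000/well) incubated 30 min at 37 °C with compound under EC80 forskolin ([…] for SST2, 15 μM for SST5). cAMP reduction was detected by enzyme-fragment complementation chemiluminescence after 60 min and 180 min room-temperature reagent steps. Potency and efficacy were both measured.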

[3] = target: SST5 (Homo sapiens, UniProt P35346); test: Hit Hunter cAMP XS+ assay, SST5 activation via Gi (reduction of forskolin-stimulated cAMP); type: cell-based; conditions: for SST5/2 Selectivity: selectivity for SST5 over SST2
Sequence of SST5 (P35346 whole entry): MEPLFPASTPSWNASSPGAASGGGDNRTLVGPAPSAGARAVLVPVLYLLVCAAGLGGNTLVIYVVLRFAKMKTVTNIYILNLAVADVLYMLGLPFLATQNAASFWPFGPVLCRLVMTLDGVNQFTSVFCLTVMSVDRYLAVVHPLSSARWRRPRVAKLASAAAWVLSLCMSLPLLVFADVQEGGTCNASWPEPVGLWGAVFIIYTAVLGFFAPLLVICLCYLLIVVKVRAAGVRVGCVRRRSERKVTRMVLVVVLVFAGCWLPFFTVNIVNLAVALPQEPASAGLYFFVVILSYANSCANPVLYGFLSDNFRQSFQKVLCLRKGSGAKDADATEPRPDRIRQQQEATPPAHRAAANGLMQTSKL
Procedure, shortened: as §1

[4] = Phase I trial, pancreatic cancer, combination treatment with gemcitabine; cited from earlier work
[5] = efficacy normalised to somatostatin 28 (basal 0%, 100% = signal with 50 nM somatostatin 28)

Question: Which “patients with limitation of disease progression” value [1] does the source give for `NCCCC[C@@H]1NC(=O)[C@@H](Cc2c[nH]c3ccccc23)NC(=O)[C@H](c2ccccc2)NC(=O)[C@@H]2C[C@@H](OC(=O)NCCN)CN2C(=O)[C@H](Cc2ccccc2)NC(=O)[C@H](Cc2ccc(OCc3ccccc3)cc2)NC1=O` [pasireotide, reference compound] (cyclo([Hyp]([CO-Ethylenediamine])[Phg][dW]KY(Bn)F)) here?
Answer: 45%

Question: What about the pEC50 [2] of the same compound?
Answer: 9.00

Question: What about the Emax ([2]; read-out: SST2 (EMax)) of the same compound?
Answer: 100%

Question: And the pEC50 [3]?
Answer: 9.60

Question: What about the Emax ([3]; read-out: SST5 (EMax)) of the same compound?
Answer: 102%

Question: What about the “SST5/2 Selectivity” value [3] of the same compound?
Answer: 3.8

Question: What about the disease control rate [4] of the same compound?
Answer: 68%

Question: What does the source list for somatostatin 28 [reference compound]?
Answer: SST2 (EMax) [2, 5]: 100.4%; SST5 (EMax) [3, 5]: 101.0%; SST5/2 Selectivity [3]: 4.6
